Data taken from US7148212B2, “Process for production of steroid crystals, steroid crystals obtained thereby and pharmaceutical preparations containing them” (Schering AG, priority 2002, dated 2006).
Marks after values point to notes of the source that are not given here.

Assay: Particle size distribution (Sympatec HELOS, dry dispersion)
Format: physicochemical
Experimental: Particle Size Distribution:
• Sympatec HELOS (H0445), dry dispersion system (RODOS), pressure 2 bar Content Uniformity Test: • Content Determination according to USP/Ph. Eur. for individual capsules after elution through HPLC with external calibration • Column: LiChrosphere 5μ RP-18 encapped, 150×3 mm • Eluent: acetonitrile/water=45/55 • Flow: 1 ml/min • Detection UV (272 nm) Active Ingredient Release: • Active ingredient release measured in 1000 mL water with 0.3% sodium dodecyl sulfate, 100 rpm • Content Determination y HPLC with external calibration • Column: LiChrosphere 5μ RP-18 encapped, 150×3 mm • Eluent: acetonitrile/water=45/55 • Flow: 1 ml/min • Detection UV (272 nm)

[1] = Example 1 microcrystals, ethyl acetate, three cycles 55/20° C., air dried
[2] = after drying on filter (ethyl acetate suspension)
[3] = after spray-drying (ethanol/water suspension)
[4] = suspension in ethanol/water (90/10) with 10% by weight microcrystalline J956, before drying
[5] = suspension in ethyl acetate with 14% by weight microcrystalline J956, before drying

**Q.** With `CCNC(=O)ON=Cc1ccc(C2CC3(C)C(CCC3(COC)OC)C3CCC4=CC(=O)CCC4=C23)cc1` (stereo not drawn) [J956, 11β-{4-[(ethylaminocarbonyl)oximinomethyl]phenyl}-17β-methoxy-17α-methoxymethyl-estra-4,9-dien-3-one] as the compound, how does the “Particle size X10” value [1] read?
**A.** 2.62 μm

**Q.** And the “Particle size X50” value [1]?
**A.** 10.4 μm

**Q.** And the “Particle size X10” value [2]?
**A.** 2.7 μm

**Q.** And the “Particle size X50” value [2]?
**A.** 10.61 μm

**Q.** And the “Particle size X90” value [2]?
**A.** 24 μm

**Q.** And the “Particle size X10” value [3]?
**A.** 2.25 μm

**Q.** What about the “Particle size X50” value [3] of the same compound?
**A.** 8.03 μm

**Q.** What about the “Particle size X90” value [3] of the same compound?
**A.** 17 μm

**Q.** And the “Particle size X100” value [3]?
**A.** 43 μm

**Q.** What about the “Particle size X10” value [4] of the same compound?
**A.** 2.11 μm

**Q.** And the “Particle size X50” value [4]?
**A.** 8.6 μm

**Q.** And the “Particle size X90” value [4]?
**A.** 19 μm

**Q.** And the “Particle size X100” value [4]?
**A.** 51 μm

**Q.** What about the “Particle size X10” value [5] of the same compound?
**A.** 2.62*** μm

**Q.** What about the “Particle size X50” value [5] of the same compound?
**A.** 10.4 μm

**Q.** And the “Particle size X90” value [5]?
**A.** 24 μm
